Reference: patent publication US20200237742A1, “Serdexmethylphenidate Conjugates, Compositions And Methods Of Use Thereof” (priority 2018, published 2020)
Where a name gives a salt, the structure may show the parent alone.

Tested on: healthy, nondependent, recreational stimulant users with intranasal insufflation experience
Experiment: Intranasal study, treatment-emergent adverse events (Table 54)
Procedure: The study consisted of a Screening Period, an in-clinic Drug Discrimination Phase, a Treatment Phase, and a Follow-Up Visit.
All subjects were required to fast for at least 8 hours prior to each dose of study drug until approximately 4 hours after each dose. Abuse potential measures and pharmacokinetic samples were collected at different times after the administration of study drug. Subjects who successfully completed the Drug Discrimination Phase and who qualified for the Treatment Phase remained as inpatients to enter the Treatment Phase.

[1] = intranasal, d-MPH HCl 40 mg, SDX Cl 80 mg, N = 46 each

For `COC(=O)[C@H](c1ccccc1)[C@H]1CCCCN1` [d-methylphenidate hydrochloride, d-threo-methylphenidate hydrochloride], the “typical stimulant-related adverse events (euphoric mood, hypervigilance, cardiac palpitations and tachycardia)” value (intranasal d-MPH HCl compared to intranasal SDX Cl) was “occurred more often”, the “Abdominal distension, subjects with event” value [1] was 0 n (%) and the “Abdominal pain, number of occurrences” value [1] was 1 E. The “Abdominal pain, subjects with event” value [1] was 1 (2.2%) n (%), the “Agitation, subjects with event” value [1] was 0 n (%) and the “Anxiety, number of occurrences” value [1] was 2 E. The “Anxiety, subjects with event” value [1] was 2 (4.3%) n (%), the “Any TEAE, number of occurrences” value [1] was 148 E and the “Any TEAE, subjects with event” value [1] was 46 (100.0%) n (%). The “Arthralgia, subjects with event” value [1] was 0 n (%), the “Asthenia, number of occurrences” value [1] was 1 E and the “Asthenia, subjects with event” value [1] was 1 (2.2%) n (%). For the same compound, the “Back pain, number of occurrences” value [1] was 1 E, the “Back pain, subjects with event” value [1] was 1 (2.2%) n (%) and the “Blood pressure diastolic increased, number of occurrences” value [1] was 1 E. For the same compound, the “Blood pressure diastolic increased, subjects with event” value [1] was 1 (2.2%) n (%), the “Bruxism, number of occurrences” value [1] was 2 E and the “Bruxism, subjects with event” value [1] was 2 (4.3%) n (%). The “Cardiac disorders, number of occurrences” value [1] was 29 E, the “Cardiac disorders, subjects with event” value [1] was 19 (41.3%) n (%) and the “Catheter site haematoma, subjects with event” value [1] was 0 n (%). The “Catheter site swelling, subjects with event” value [1] was 0 n (%), the “Change in sustained attention, number of occurrences” value [1] was 1 E and the “Change in sustained attention, subjects with event” value [1] was 1 (2.2%) n (%). For the same compound, the “Chest discomfort, number of occurrences” value [1] was 1 E, the “Chest discomfort, subjects with event” value [1] was 1 (2.2%) n (%) and the “Chest pain, subjects with event” value [1] was 0 n (%). The “Claustrophobia, subjects with event” value [1] was 0 n (%), the “Cough, subjects with event” value [1] was 0 n (%) and the “Decreased appetite, number of occurrences” value [1] was 3 E. The “Decreased appetite, subjects with event” value [1] was 3 (6.5%) n (%), the “Defaecation urgency, number of occurrences” value [1] was 1 E and the “Defaecation urgency, subjects with event” value [1] was 1 (2.2%) n (%). The “Diarrhoea, number of occurrences” value [1] was 1 E, the “Diarrhoea, subjects with event” value [1] was 1 (2.2%) n (%) and the “Disturbance in attention, number of occurrences” value [1] was 1 E. For the same compound, the “Disturbance in attention, subjects with event” value [1] was 1 (2.2%) n (%), the “Dizziness, subjects with event” value [1] was 0 n (%) and the “Dry mouth, number of occurrences” value [1] was 6 E. The “Dry mouth, subjects with event” value [1] was 6 (13.0%) n (%), the “Dry throat, number of occurrences” value [1] was 3 E and the “Dry throat, subjects with event” value [1] was 3 (6.5%) n (%). The “Dysgeusia, subjects with event” value [1] was 0 n (%), the “Dysmenorrhoea (menstrual cramps), number of occurrences” value [1] was 1 E and the “Dysmenorrhoea (menstrual cramps), subjects with event” value [1] was 1 (2.2%) n (%). For the same compound, the “Dyspepsia, subjects with event” value [1] was 0 n (%), the “Ecchymosis (skin discoloration), subjects with event” value [1] was 0 n (%) and the “Energy increased, number of occurrences” value [1] was 2 E. For the same compound, the “Energy increased, subjects with event” value [1] was 2 (4.3%) n (%), the “Epistaxis (nosebleed), subjects with event” value [1] was 0 n (%) and the “Euphoric mood, number of occurrences” value [1] was 29 E. For the same compound, the “Euphoric mood, subjects with event” value [1] was 29 (63.0%) n (%), the “Eye disorders, number of occurrences” value [1] was 3 E and the “Eye disorders, subjects with event” value [1] was 3 (6.5%) n (%). For the same compound, the “Eye irritation, number of occurrences” value [1] was 1 E, the “Eye irritation, subjects with event” value [1] was 1 (2.2%) n (%) and the “Eye pain, subjects with event” value [1] was 0 n (%). The “Fatigue, number of occurrences” value [1] was 3 E, the “Fatigue, subjects with event” value [1] was 3 (6.5%) n (%) and the “Feeling hot, number of occurrences” value [1] was 3 E. The “Feeling hot, subjects with event” value [1] was 3 (6.5%) n (%), the “Feeling of relaxation, subjects with event” value [1] was 0 n (%) and the “Flushing, number of occurrences” value [1] was 1 E. The “Flushing, subjects with event” value [1] was 1 (2.2%) n (%), the “Gastrointestinal disorders, number of occurrences” value [1] was 10 E and the “Gastrointestinal disorders, subjects with event” value [1] was 9 (19.6%) n (%). The “General disorders and administration site conditions, number of occurrences” value [1] was 13 E, the “General disorders and administration site conditions, subjects with event” value [1] was 12 (26.1%) n (%) and the “Haematoma, number of occurrences” value [1] was 1 E. For the same compound, the “Haematoma, subjects with event” value [1] was 1 (2.2%) n (%), the “Head discomfort, subjects with event” value [1] was 0 n (%) and the “Headache, number of occurrences” value [1] was 7 E. For the same compound, the “Headache, subjects with event” value [1] was 7 (15.2%) n (%), the “Hyperhidrosis, number of occurrences” value [1] was 3 E and the “Hyperhidrosis, subjects with event” value [1] was 3 (6.5%) n (%). For the same compound, the “Hypervigilance, number of occurrences” value [1] was 16 E, the “Hypervigilance, subjects with event” value [1] was 16 (34.8%) n (%) and the “Hypopnoea (shallow breathing), number of occurrences” value [1] was 1 E. The “Hypopnoea (shallow breathing), subjects with event” value [1] was 1 (2.2%) n (%), the “Infections and infestations, subjects with event” value [1] was 0 n (%) and the “Investigations, number of occurrences” value [1] was 1 E. For the same compound, the “Investigations, subjects with event” value [1] was 1 (2.2%) n (%), the “Irritability, subjects with event” value [1] was 0 n (%) and the “Lacrimation increased, subjects with event” value [1] was 0 n (%). For the same compound, the “Metabolism and nutrition disorders, number of occurrences” value [1] was 3 E, the “Metabolism and nutrition disorders, subjects with event” value [1] was 3 (6.5%) n (%) and the “Muscle tightness, number of occurrences” value [1] was 2 E. For the same compound, the “Muscle tightness, subjects with event” value [1] was 2 (4.3%) n (%), the “Muscle twitching, number of occurrences” value [1] was 1 E and the “Muscle twitching, subjects with event” value [1] was 1 (2.2%) n (%). The “Musculoskeletal and connective tissue disorders, number of occurrences” value [1] was 5 E, the “Musculoskeletal and connective tissue disorders, subjects with event” value [1] was 4 (8.7%) n (%) and the “Nasal congestion, number of occurrences” value [1] was 1 E. For the same compound, the “Nasal congestion, subjects with event” value [1] was 1 (2.2%) n (%), the “Nasal discomfort, number of occurrences” value [1] was 3 E and the “Nasal discomfort, subjects with event” value [1] was 3 (6.5%) n (%). The “Nasal dryness, subjects with event” value [1] was 0 n (%), the “Nausea, number of occurrences” value [1] was 1 E and the “Nausea, subjects with event” value [1] was 1 (2.2%) n (%). The “Neck pain, number of occurrences” value [1] was 1 E, the “Neck pain, subjects with event” value [1] was 1 (2.2%) n (%) and the “Nervous system disorders, number of occurrences” value [1] was 10 E. For the same compound, the “Nervous system disorders, subjects with event” value [1] was 9 (19.6%) n (%), the “Obsessive-compulsive disorder, number of occurrences” value [1] was 1 E and the “Obsessive-compulsive disorder, subjects with event” value [1] was 1 (2.2%) n (%). For the same compound, the “Palpitations, number of occurrences” value [1] was 11 E, the “Palpitations, subjects with event” value [1] was 11 (23.9%) n (%) and the “Peripheral swelling, number of occurrences” value [1] was 1 E. The “Peripheral swelling, subjects with event” value [1] was 1 (2.2%) n (%), the “Pharyngeal hypoaesthesia (numbness of throat), number of occurrences” value [1] was 1 E and the “Pharyngeal hypoaesthesia (numbness of throat), subjects with event” value [1] was 1 (2.2%) n (%). The “Pharyngitis, subjects with event” value [1] was 0 n (%), the “Phlebitis superficial, subjects with event” value [1] was 0 n (%) and the “Phonophobia (fear of loud noises), number of occurrences” value [1] was 1 E. For the same compound, the “Phonophobia (fear of loud noises), subjects with event” value [1] was 1 (2.2%) n (%), the “Photophobia, number of occurrences” value [1] was 1 E and the “Photophobia, subjects with event” value [1] was 1 (2.2%) n (%). For the same compound, the “Psychiatric disorders, number of occurrences” value [1] was 54 E, the “Psychiatric disorders, subjects with event” value [1] was 41 (89.1%) n (%) and the “Pyrexia, subjects with event” value [1] was 0 n (%). The “Reproductive system and breast disorders, number of occurrences” value [1] was 2 E, the “Reproductive system and breast disorders, subjects with event” value [1] was 2 (4.3%) n (%) and the “Respiratory, thoracic and mediastinal disorders, number of occurrences” value [1] was 12 E. The “Respiratory, thoracic and mediastinal disorders, subjects with event” value [1] was 10 (21.7%) n (%), the “Restlessness, number of occurrences” value [1] was 2 E and the “Restlessness, subjects with event” value [1] was 2 (4.3%) n (%). The “Rhinorrhoea (runny nose), subjects with event” value [1] was 0 n (%), the “Sinus tachycardia, number of occurrences” value [1] was 7 E and the “Sinus tachycardia, subjects with event” value [1] was 7 (15.2%) n (%). For the same compound, the “Skin and subcutaneous tissue disorders, number of occurrences” value [1] was 4 E, the “Skin and subcutaneous tissue disorders, subjects with event” value [1] was 4 (8.7%) n (%) and the “Skin erosion, number of occurrences” value [1] was 1 E. For the same compound, the “Skin erosion, subjects with event” value [1] was 1 (2.2%) n (%), the “Sneezing, subjects with event” value [1] was 0 n (%) and the “Somnolence, number of occurrences” value [1] was 2 E. For the same compound, the “Somnolence, subjects with event” value [1] was 2 (4.3%) n (%), the “Tachycardia, number of occurrences” value [1] was 9 E and the “Tachycardia, subjects with event” value [1] was 8 (17.4%) n (%). The “Testis discomfort, number of occurrences” value [1] was 1 E, the “Testis discomfort, subjects with event” value [1] was 1 (2.2%) n (%) and the “Throat irritation, number of occurrences” value [1] was 3 E. The “Throat irritation, subjects with event” value [1] was 3 (6.5%) n (%), the “Upper-airway cough syndrome, subjects with event” value [1] was 0 n (%) and the “Vascular disorders, number of occurrences” value [1] was 2 E. The “Vascular disorders, subjects with event” value [1] was 2 (4.3%) n (%), the “Ventricular extrasystoles, number of occurrences” value [1] was 2 E and the “Ventricular extrasystoles, subjects with event” value [1] was 2 (4.3%) n (%). For the same compound, the “Vessel puncture site bruise, number of occurrences” value [1] was 1 E, the “Vessel puncture site bruise, subjects with event” value [1] was 1 (2.2%) n (%) and the “Vessel puncture site pain, number of occurrences” value [1] was 1 E. The “Vessel puncture site pain, subjects with event” value [1] was 1 (2.2%) n (%), the “Visual impairment, number of occurrences” value [1] was 1 E and the “Visual impairment, subjects with event” value [1] was 1 (2.2%) n (%). The “Vomiting, subjects with event” value [1] was 0 n (%).
